Data on one compound can be found in patent US11065263B2, “Sterol composition in pumpkin seed oil and application thereof, and drug for treating benign prostatic hyperplasia” (Hunan Zhongkewentai Bio-tech co.Ltd, priority 2019, dated 2021).

What all share (format): in vivo, SD (Sprague Dawley) rats
In one series the test system is 5α-reductase. Put plainly: RT-qPCR genetic expression of 5α-reductase in the prostate. The conditions noted are these: finasteride group, 0.28 mg/kg, compared with the model group. (Real-time PCR tracks product formation cycle by cycle.)
The subject of series [1] is benign prostatic hyperplasia rats treated with testosterone propionate. Put plainly: prostate weight and prostate index in benign prostatic hyperplasia rats treated with testosterone propionate. The conditions noted are these: finasteride group. On the procedure: : modeling, particularly comprising steps of: […]: respectively weighing six groups of SD rats; […] The drug is administrated by gavage once a day; after administrating for consecutive 6 days, administration is stopped for one day; and an administration cycle is 4 week. Respectively weighing SD rats of six groups two hours after last administration and after fasting for 12 hours; killing the SD rats, separating the prostate of the SD rats through the tweezers, and weighing the prostate;

A short description of series [2]: rat weight after 4 week administration in benign prostatic hyperplasia rats. The conditions noted are these: finasteride group, 0.28 mg/kg by gavage once a day.
The test system of series [3] is SRC-1 (steroid receptor coactivator-1). Put plainly: immunohistochemical measurement of SRC-1 in the prostate. As to conditions: finasteride group, 0.28 mg/kg. Here is the method: S3023: according to a dose of 4 mg/kg, which is calculated through equivalent conversion according to the body surface areas of humans and animals, hypodermically injecting the testosterone propionate injection to each SD rat for consecutive 30 days, and injecting normal saline of same volume to the SD rats of normal group, so as to finish modeling.
The high-dose group adopts an administration dose of 10 mg/kg (which is calculated through equivalent conversion according to the body surface areas of humans and animals; when the weight of the SD rat is 1 kg, 10 mg of the sterol composition in the pumpkin seed oil prepared through the example 1 is administrated), the medium-dose group adopts an administration dose of 3.3 mg/kg, and the low-dose group adopts an administration dose of 1.1 mg/kg, which respectively correspond to 20 times, 6.66 times, and 2.22 times the clinical dose. Before drug administration, suspensions of 4.5 mg/mL, 1.5 mg/mL, and 0.5 mg/mL are respectively prepared with the corn oil. […] The drug is administrated by gavage once a day; after administrating for consecutive 6 days, administration is stopped for one day; and an administration cycle is 4 week. […]

The test system of series [4] is prostate tissue of benign prostatic hyperplasia rats. Put plainly: prostate tissue appearance and HE stain morphology in benign prostatic hyperplasia rats. The conditions noted are these: finasteride group, 0.28 mg/kg. From the text:
The drug is administrated by gavage once a day; after administrating for consecutive 6 days, administration is stopped for one day; and an administration cycle is 4 week. killing the SD rats, separating the prostate of the SD rats through the tweezers, and weighing the prostate; […]

Each structure is given as a SMILES string.

`CC(C)(C)NC(=O)[C@H]1CC[C@H]2[C@@H]3CC[C@H]4NC(=O)C=C[C@]4(C)[C@H]3CC[C@]12C` [Finasteride, finasteride]: the “genetic expression quantity of 5α-reductase, RT-qPCR (FIG. 5)” value in the series with 5α-reductase is “obviously decreased”. Besides, in series [1] (0.28 mg/kg), the “decrease of prostate weight compared with the model group” value is given as 19.1%. Moreover, the Prostate weight in series [1] (0.28 mg/kg by gavage once a day, 4 week) came out at 868.4 ± 188.3 mg. The same compound yielded a Rat weight in series [2] of 439.2 ± 32.7 g. In addition, the “genetic expression of SRC-1, immunohistochemical method (FIG. 4)” value in series [3] is on record as “obviously decreased”. In addition, in series [4], the “HE stain morphology of the prostate tissue (FIG. 3)” value was “part of the multiple-layer epithelial cells in the prostate tissue recover to the single-layer epithelial cells” and the “volume of the prostate tissue compared with the model group (FIG. 2)” value was “obviously decreased”.
